In one test the test system is A. baumannii ATCC 19606. The experiment in a line: microbe, parasite or virus in culture. In kind it is cell-based, Acinetobacter baumannii. The protocol: (§1) The A. baumannii ATCC 19606 strain was acquired from the American Type Culture Collection and prepared in line with the manufacturer’s instructions. The culture was stored in Roti®-Store Cryo-Vials (Carl Roth GmbH, Karlsruhe, Germany) at − 20 °C. Before the tests, the bead with cryo-protected bacteria was transferred into fresh MHB (Biocorp, Warsaw, Poland) and incubated for 24 h at 37 °C. Then, the culture was seeded on MHA plates and incubated as just mentioned. The agar cultures prepared in this way were used for further experiments. Cell densities for all assays were adjusted spectrophotometrically (Multiskan™ GO Microplate Spectrophotometer, Thermo Scientific) at 600 nm.
The MICs and MBCs were determined with the reference to the Clinical and Laboratory Standards Institute guidelines. MICs were determined by broth microdilution method. For this purpose, initial inoculums of bacteria (0.5 × 10^5 CFU/mL) in MHB were exposed to a series of concentrations (0.5–256 μg/mL) of the compounds and incubated for 18 h at 37 °C. The experiments were conducted on 96-well microtiter polystyrene plates with the final volume of 100 μL. The MIC was taken as the lowest drug concentration at which a noticeable growth of microorganisms was inhibited. In parallel, the MIC wells, two above and one below (positive control), were cultured on a MHA plate. […] All experiments were conducted in triplicate.

Test [1] deals with A. baumannii ATCC 19606 biofilm. It counts as cell-based, Acinetobacter baumannii. Here is the method:
as §1
The antibiofilm activity was determined on 96-well flat-bottomed microtiter polystyrene plates and 0.5-cm fragments of tracheal tubes (RIM-75, ZARYS International Group, Zabrze, Poland), with resazurin (7-hydroxy-3H-phenoxazin-3-one 10-oxide) as a cell viability reagent. The first part included assay on 96-well plates. To do this, the plates were filled with 100 μL of the initial inoculums of bacteria (0.5 × 10^7 CFU/mL) in the MHB and incubated for 24 h at 37 °C. Then, the wells were rinsed three times with PBS to remove non-adhered cells and the fresh medium with a series of concentrations (0.5–256 μg/mL) of the compounds was added. After 24 h of incubation, 20 μL of resazurin (4 mg/mL) was added to each well and the MBEC values were read. The assay on tracheal tube fragments was conducted using 24-well polystyrene plates. Briefly, the tracheal tube fragments were dipped in 1 mL of the bacterial inoculum (0.5 × 10^7 CFU/mL) and incubated at 37 °C. After 24 h of incubation, the test fragments were rinsed three times with PBS and transferred into other wells containing the fresh medium with a series of concentrations of the test compounds. Subsequently, the plates were incubated again for 24 h at 37 °C. Then, 200 μL of resazurin was added and the MBEC was read. All experiments were conducted in triplicate.

[2] abbreviates: Acinetobacter baumannii, ATCC19606, MIC wells cultured on MHA plate, 24 h at 37 °C, no visible growth, triplicate, read-out: MBC.
Where [3] appears, read: Acinetobacter baumannii, ATCC19606, broth microdilution (CLSI), MHB, inoculum 0.5 × 10^5 CFU/mL, 18 h at 37 °C, polystyrene 96-well plates, triplicate, read-out: MIC.
Where [4] appears, read: 24 h biofilm on 0.5-cm tracheal tube fragments, 24 h treatment at 37 °C, resazurin read-out, triplicate.
The mark [5] stands for this setting: 24 h biofilm on polystyrene 96-well plates, 24 h treatment at 37 °C, resazurin read-out, triplicate.
Setting [6] is: MIC wells cultured on MHA plate, 24 h at 37 °C, no visible growth, triplicate.
Where [7] appears, read: broth microdilution (CLSI), MHB, inoculum 0.5 × 10^5 CFU/mL, 18 h at 37 °C, polystyrene 96-well plates, triplicate.

Values after ≈ are worked out from the molar mass of the structure shown. Read-outs that look alike come from different tables or passages of the source. Where no end group is shown, it is not given here.

As to `CCN1CCN(C(=O)N[C@@H](C(=O)N[C@@H]2C(=O)N3[C@@H]2SC(C)(C)[C@@H]3C(=O)O)c2ccccc2)C(=O)C1=O` [Piperacillin, reference compound], the MBC in the test on A. baumannii ATCC 19606 (setting [2]) turned out to be 128 µg/mL (≈ 247 µM). Also, the MIC in the test on A. baumannii ATCC 19606 (setting [3]) worked out at 64 µg/mL (≈ 124 µM). The “MBEC^tt” value in test [1] (setting [4]) was > 512 µg/mL; in test [1] (24 h biofilm on 0.5-cm tracheal tube fragments, 24 h treatment at 37 °C, resazurin read-out, triplicate, listed as piperacillin), “failed to eradicate the biofilm at any concentration”. In addition, the MBEC entry in test [1] (setting [5]) was “failed to eradicate the biofilm at any concentration”.
In the case of `CO[C@H]1/C=C/O[C@@]2(C)Oc3c(C)c(O)c4c(O)c(c(/C=N/N5CCN(C)CC5)c(O)c4c3C2=O)NC(=O)/C(C)=C\C=C\[C@H](C)[C@H](O)[C@@H](C)[C@@H](O)[C@@H](C)[C@H](OC(C)=O)[C@@H]1C` [Rifampicin, reference compound], the MBC in the test on A. baumannii ATCC 19606 (setting [2]) amounted to 4 µg/mL (≈ 4.86 µM). For the same molecule, in the test with A. baumannii ATCC 19606 (setting [3]), the MIC was found to be 4 µg/mL (≈ 4.86 µM). In addition, the “MBEC^tt” value in test [1] (setting [4]) stood at 4 µg/mL. Further, the MBEC in test [1] (setting [5]) is 8 µg/mL.
In the test on A. baumannii ATCC 19606 (ATCC 19606, 18 h), KRRWPWWPWRLI-NH2 [r-Omiganan] came in with an MIC of 16 µg/mL. In addition, in the test with A. baumannii ATCC 19606 (ATCC 19606, 24 h), the MBC amounted to 16 µg/mL. Further, in test [1] (ATCC 19606, 24 h), the MBEC came out at 256 µg/mL and the “MBEC^tt” value came to 128 µg/mL.
The molecule GLFDVIKKVASVIGGL-NH2 [Citropin 1.1] came in with an MIC against A. baumannii ATCC 19606 (ATCC 19606, 18 h) of 16 µg/mL. Moreover, the MBC with A. baumannii ATCC 19606 (ATCC 19606, 24 h) amounted to 16 µg/mL. For the same molecule, in test [1] (ATCC 19606, 24 h), the MBEC turned out to be 256 µg/mL and the “MBEC^tt” value stood at 32 µg/mL.
`O=C(O)c1cn(C2CC2)c2cc(N3CCNCC3)c(F)cc2c1=O` [Ciprofloxacin, reference compound]: the MBC with A. baumannii ATCC 19606 (setting [2]) was determined as 1 µg/mL (≈ 3.02 µM). For the same molecule, in test [1] (setting [4]), the “MBEC^tt” value amounted to 1 µg/mL. In addition, the MBEC in test [1] (setting [5]) came out at 2 µg/mL.
With `CN(C)[C@@H]1C(O)=C(C(N)=O)C(=O)[C@@]2(O)C(O)=C3C(=O)c4c(O)cccc4[C@@](C)(O)[C@H]3C[C@@H]12` [Tetracycline, reference compound], the MBC with A. baumannii ATCC 19606 (setting [2]) amounted to 4 µg/mL (≈ 9 µM). Also, the MIC with A. baumannii ATCC 19606 (setting [3]) is 2 µg/mL (≈ 4.5 µM). For the same molecule, the “MBEC^tt” value in test [1] (setting [4]) amounted to 4 µg/mL. Also, the MBEC in test [1] (setting [5]) worked out at 16 µg/mL.
As to KWKLFKKIGAVLKVL-NH2 [CAMEL], the MBC in the test with A. baumannii ATCC 19606 (setting [6]) is 4 µg/mL. Besides, the MIC with A. baumannii ATCC 19606 (setting [7]) was found to be 2 µg/mL. The “MBEC^tt” value in test [1] (setting [4]) stood at 64 µg/mL. Besides, in test [1] (setting [5]), the MBEC worked out at 128 µg/mL.
In the case of `CC[C@H]1OC(=O)[C@H](C)[C@@H](O[C@H]2C[C@@](C)(OC)[C@@H](O)[C@H](C)O2)[C@H](C)[C@@H](O[C@@H]2O[C@H](C)C[C@H](N(C)C)[C@H]2O)[C@](C)(O)C[C@@H](C)C(=O)[C@H](C)[C@@H](O)[C@]1(C)O` [Erythromycin, reference compound], the MBC with A. baumannii ATCC 19606 (setting [2]) was 32 µg/mL (≈ 43.6 µM). Besides, in the test on A. baumannii ATCC 19606 (setting [3]), the MIC is 32 µg/mL (≈ 43.6 µM). Further, the “MBEC^tt” value in test [1] (setting [4]) came out at 16 µg/mL. Further, the MBEC in test [1] (setting [5]) was found to be 32 µg/mL.
The molecule GLFDIIKKIAESF-NH2 [Aurein 1.2] yielded an MBC in the test on A. baumannii ATCC 19606 (setting [6]) of 16 µg/mL. In the test with A. baumannii ATCC 19606 (setting [7]), this molecule yielded an MIC of 16 µg/mL. The “MBEC^tt” value in test [1] (setting [4]) turned out to be 32 µg/mL. Moreover, the MBEC in test [1] (setting [5]) was 64 µg/mL.
`CNC(C)C1CCC(N)C(OC2C(N)CC(N)C(OC3OCC(C)(O)C(NC)C3O)C2O)O1` (stereo not drawn) [Gentamicin, reference compound]: in the test with A. baumannii ATCC 19606 (setting [2]), the MBC worked out at 32 µg/mL (≈ 67 µM). In the test with A. baumannii ATCC 19606 (setting [3]), the MIC amounted to 16 µg/mL (≈ 33.5 µM). Besides, the “MBEC^tt” value in test [1] (setting [4]) turned out to be 32 µg/mL. In test [1] (setting [5]), the MBEC worked out at 32 µg/mL.
As for GIGKFLKKAKKFGKAFVKILKK-NH2 [Pexiganan], the MIC with A. baumannii ATCC 19606 (ATCC 19606, 18 h) stood at 2 µg/mL. Moreover, the MBC with A. baumannii ATCC 19606 (ATCC 19606, 24 h) was 4 µg/mL. In test [1] (ATCC 19606, 24 h), the MBEC stood at 256 µg/mL and the “MBEC^tt” value was determined as 32 µg/mL.
For FLPLIGRVLSGIL-NH2 [Temporin A], the MIC with A. baumannii ATCC 19606 (ATCC 19606, 18 h) was found to be 128 µg/mL. The same molecule gave an MBC in the test on A. baumannii ATCC 19606 (ATCC 19606, 24 h) of 128 µg/mL. In addition, in test [1] (ATCC 19606, 24 h), the “MBEC^tt” value turned out to be 256 µg/mL.
Molecule ILRWPWWPWRRK-NH2 [Omiganan] showed an MIC against A. baumannii ATCC 19606 (ATCC 19606, 18 h) of 32 µg/mL. The same molecule yielded an MBC with A. baumannii ATCC 19606 (ATCC 19606, 24 h) of 64 µg/mL. In test [1] (ATCC 19606, 24 h), the MBEC is 256 µg/mL and the “MBEC^tt” value was found to be 128 µg/mL.
